The values that follow come from patent US20190307664A1, “METHOD AND COSMETIC COMPOSITION FOR ENHANCED TRANSDERMAL DELIVERY OF ALKYL SUBSTITUTED RESORCINOL” (CONOPCO, INC., D/B/A UNILEVER, priority 2016, published 2019).

In the test the test system is HeMnDP melanocyte monoculture. Briefly: Melanin content assay in melanocyte monoculture (after Calcein-AM viability assay). It is filed as cell-based. Particulars: 72 hours. The protocol: All samples were analysed to determine the extent of their ability to bring about skin lightening by checking the cell viability and melanin content assay. Set Up of Cultures Involved the Following Steps: • ([…] per well (single wells/treatment) in 24-well Nunc plates on Day-0 were seeded to establish a melanocyte monoculture system. • (ii) The volume of media per well was limited to 1 ml of Melanocyte Growth Media (MGM) • (iii) 24 hours later, fresh media containing actives was added again. At this stage also, 1 ml of MGM was used. • (iv) Plates were incubated for 72 hours at 37° C. in a CO2 incubator. • (v) At the end, the plates were sent for Calcein assay, described hereinafter, followed by melanin content estimation. Calcein-AM Viability Assay • (i) The spent media was removed from each well of a 24-well plate and rinsed once with 400 μl of 1×PBS-Ca-Mg (see preparation below), including wells without cells (Control wells). • (ii) One μM Calcein-AM (working stock) in 1×PBS-Ca-Mg from 1 mM stock (e.g. 10 μl of 1 mM Calcein stock in 100% DMSO in 10 ml of 1×PBS-Ca-Mg) was prepared. About 400 μl of Calcein-AM working stock solution was added to each well, including the controls cells. • (iii) The plates were covered with aluminum foil and were incubated for 30 minutes in a CO2 incubator. • (iv) In the meantime, fluorescence was measured (excitation at 490 nm and emission at 520 nm) using TECAN® instrument after 30 minutes of dye incubation. • (v) After reading the plates, the buffer containing Calcein was removed and melanin content assay was then carried out. […] The % inhibition was then calculated for each case. Higher values of % inhibition indicate an active ingredient's potential to serve as a skin lightening agent. The tests of Example 2 were repeated with isonicotinamide instead of picolinamide.

For the compound `CCCCCCc1ccc(O)cc1O` [Ex-B, 4-hexyl resorcinol], the “Inhibition in melanin synthesis” value is reported as 3% (4-hexyl Resorcinol 0.192 μg, Example 2); 3% (4-hexyl Resorcinol 0.192 μg, Example 3); 31% (4-hexyl Resorcinol 1.92 μg, Example 2); 31% (4-hexyl Resorcinol 1.92 μg, Example 3).
Regarding `NC(=O)c1ccncc1` [Ex-I, Isonicotinamide], the “Inhibition in melanin synthesis” value (Isonicotinamide 122 μg) is reported as −16% and the “Inhibition in melanin synthesis” value (Isonicotinamide 1220 μg) is listed as 10%.
Consider `NC(=O)c1ccccn1` [Ex-D, Picolinamide], for which the “Inhibition in melanin synthesis” value is, setting by setting: (picolinamide 122 μg) 1%; (picolinamide 1220 μg) 27%.
